Measurements: the NIST ThermoML archive (doi:10.1021/acs.jced.7b00507)
± gives the expanded uncertainty stated by the source.

Assay: mn = molality of the nth substance listed, in mol/kg
Details: 100 kPa, Liquid, Pycnometric method

SMILES	mass density (293.15 K, m1 = 3.129)	mass density (303.15 K, m1 = 4.532)	mass density (313.15 K, m1 = 6.615)	mass density (323.15 K, m1 = 8.465)	mass density (293.15 K, m1 = 0.6199)	mass density (303.15 K, m1 = 0.8756)	mass density (313.15 K, m1 = 1.222)	mass density (323.15 K, m1 = 1.908)
O=[N+]([O-])[O-].[K+] [potassium nitrate] + O	1167 ± 12 kg/m3	1217.1 ± 12 kg/m3	1269.4 ± 13 kg/m3	1321 ± 14 kg/m3	–	–	–	–
[K+].[O]=[V](=[O])[O-] [potassium vanadate] + O	–	–	–	–	1060.4 ± 11 kg/m3	1081.6 ± 11 kg/m3	1111 ± 11 kg/m3	1156 ± 12 kg/m3
